# Reference: patent publication US12187713B2, “Immunomodulators, compositions and methods thereof” (Betta Pharmaceuticals Co., Ltd, priority 2019, dated 2025)
# Target: PD-1/PD-L1 (Homo sapiens (Human), UniProt Q9NZQ7)
# Assay: PD-1/PD-L1 Binding Assay (Alphascreen)
# Conditions: numeric values
# Method in brief: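 PD-1/PD-L1 binding detected by anti-6×His acceptor and streptavidin donor beads after 120 min in the dark at 25 °C. Beforehand, the two proteins were incubated 15 min at 25 °C with inhibitor at 0.015–300 nM (1% DMSO). IC50 comes from a log concentration–response curve.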
# Sequence of PD-1/PD-L1 (Q9NZQ7 19-238): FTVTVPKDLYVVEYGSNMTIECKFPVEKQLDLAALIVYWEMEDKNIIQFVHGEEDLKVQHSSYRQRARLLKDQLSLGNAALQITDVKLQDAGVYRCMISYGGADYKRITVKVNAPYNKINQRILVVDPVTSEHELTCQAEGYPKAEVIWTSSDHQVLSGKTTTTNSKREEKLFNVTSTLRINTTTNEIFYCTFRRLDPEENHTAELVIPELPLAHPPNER
row,IC50 [nM],Compound
1,0.3,"Cc1c(Nc2nccc3cc(CNCC(=O)O)cnc23)cccc1-c1cccc(-c2nc3cc(CN4CCC[C@H]4C(=O)O)c(OC(F)F)cc3o2)c1C [Example 172, ((2-(3′-((3-(((carboxymethyl)amino)methyl)-1,7-naphthyridin-8-yl)amino)-2,2′-dimethyl-[1,1′-biphenyl]-3-yl)-6-(difluoromethoxy)benzo[d]oxazol-5-yl)methyl)-L-proline]"
2,0.93,"Cc1c(Nc2nccc3cc(CN4CCCC[C@H]4C(=O)O)cnc23)cccc1-c1cccc(-c2nc3cc(CN4CCC[C@H]4C(=O)O)c(OC(F)F)cc3o2)c1C [Example 173, (S)-1-((8-((3′-(5-(((S)-2-carboxypyrrolidin-1-yl)methyl)-6-(difluoromethoxy)benzo[d]oxazol-2-yl)-2,2′-dimethyl-[1,1′-biphenyl]-3-yl)amino)-1,7-naphthyridin-3-yl)methyl)piperidine-2-carboxylic acid]"
3,21,"Cc1c(Nc2nccc3cc(CN4CCC(F)C4)cnc23)cccc1-c1cccc(-c2nc3cc(CN4CCC[C@H]4C(=O)O)c(OC(F)F)cc3o2)c1C (stereo partly drawn) [Example 174, ((6-(difluoromethoxy)-2-(3′-((3-((3-fluoropyrrolidin-1-yl)methyl)-1,7-naphthyridin-8-yl)amino)-2,2′-dimethyl-[1,1′-biphenyl]-3-yl)benzo[d]oxazol-5-yl)methyl)-L-proline]"
4,0.9,"Cc1c(Nc2nccc3cc(CN4CCOCC4)cnc23)cccc1-c1cccc(-c2nc3cc(CN4CCC[C@H]4C(=O)O)c(OC(F)F)cc3o2)c1C [Example 176, ((6-(difluoromethoxy)-2-(2,2′-dimethyl-3′-((3-(morpholinomethyl)-1,7-naphthyridin-8-yl)amino)-[1,1′-biphenyl]-3-yl)benzo[d]oxazol-5-yl)methyl)-L-proline]"
5,0.94,"Cc1c(Nc2nccc3cc(CN4CCC4)cnc23)cccc1-c1cccc(-c2nc3cc(CN4CCC[C@H]4C(=O)O)c(OC(F)F)cc3o2)c1C [Example 177, ((2-(3′-((3-(azetidin-1-ylmethyl)-1,7-naphthyridin-8-yl)amino)-2,2′-dimethyl-[1,1′-biphenyl]-3-yl)-6-(difluoromethoxy)benzo[d]oxazol-5-yl)methyl)proline]"
6,3.9,"Cc1c(Nc2nccc3cc(CN4CC(O)C4)cnc23)cccc1-c1cccc(-c2nc3cc(CN4CCC[C@H]4C(=O)O)c(OC(F)F)cc3o2)c1C [Example 178, ((6-(difluoromethoxy)-2-(3′-((3-((3-hydroxyazetidin-1-yl)methyl)-1,7-naphthyridin-8-yl)amino)-2,2′-dimethyl-[1,1′-biphenyl]-3-yl)benzo[d]oxazol-5-yl)methyl)proline]"

# Same assay, conditions: range symbols
row,Compound,IC50 [nM]
1,"Cc1c(-c2nc3cc(CN4CCC[C@H]4C(=O)O)c(OC(F)F)cc3o2)cccc1-c1cccc(-c2nc3cc(CN4CCC5(C4)CC5(F)F)cc(C#N)c3o2)c1C (stereo partly drawn) [Example 153, ((2-(3′-(7-cyano-5-((1,1-difluoro-5-azaspiro[2.4]heptan-5-yl)methyl)benzo [d]oxazol-2-yl)-2,2′-dimethyl-[1,1′-biphenyl]-3-yl)-6-(difluoromethoxy)benzo[d]oxazol-5-yl)methyl)-L-proline]",0.1 to 5
2,Cc1c(-c2nc3cc(CN4CCC[C@H]4C(=O)O)c(OC(F)F)cc3o2)cccc1-c1cccc(-c2nc3cc(CNC4CC(O)C4)cc(C#N)c3o2)c1C (some centres unmarked) [Example 155],0.1 to 5
3,Cc1c(-c2nc3cc(CN4CCC[C@H]4C(=O)O)c(OC(F)F)cc3o2)cccc1-c1cccc(-c2nc3cc(CNCC4CNC4)cc(C#N)c3o2)c1C [Example 157],0.1 to 5
4,"Cc1c(-c2nc3cc(CN4CCC[C@H]4C(=O)O)c(OC(F)F)cc3o2)cccc1-c1cccc(-c2nc3cc(CNCc4cn(C)cn4)cc(C#N)c3o2)c1C [Example 160, ((2-(3′-(7-cyano-5-((((1-methyl-1H-imidazol-4-yl)methyl)amino)methyl)benzo[d]oxazol-2-yl)-2,2′-dimethyl-[1,1′-biphenyl]-3-yl)-6-(difluoromethoxy)benzo[d]oxazol-5-yl)methyl)-L-proline]",0.1 to 5
5,"Cc1c(-c2nc3cc(CN4CCC[C@H]4C(=O)O)c(OC(F)F)cc3o2)cccc1-c1cccc(-c2nc3cc(CN4CC(C)(CN)C4)cc(C#N)c3o2)c1C [Example 161, ((2-(3′-(5-((3-(aminomethyl)-3-methylazetidin-1-yl)methyl)-7-cyanobenzo[d]oxazol-2-yl)-2,2′-dimethyl-[1,1′-biphenyl]-3-yl)-6-(difluoromethoxy)benzo[d]oxazol-5-yl)methyl)-L-proline]",0.1 to 5
6,"Cc1c(-c2nc3cc(CN4CCC[C@H]4C(=O)O)c(OC(F)F)cc3o2)cccc1-c1cccc(-c2nc3cc(CN4CCC(F)C4)cc(C(F)(F)F)c3o2)c1C (stereo partly drawn) [Example 166, ((6-(difluoromethoxy)-2-(3′-(5-((3-fluoropyrrolidin-1-yl)methyl)-7-(trifluoromethyl)benzo[d]oxazol-2-yl)-2,2′-dimethyl-[1,1′-biphenyl]-3-yl)benzo[d]oxazol-5-yl)methyl)-L-proline]",5 to 50
7,"Cc1c(-c2nc3cc(CN4CC[C@@H](C(=O)O)C4)c(OC(F)F)cc3o2)cccc1-c1cccc(-c2nc3cc(CN4CCCC4)cc(C#N)c3o2)c1C [Example 169, (R)-1-((2-(3′-(7-cyano-5-(pyrrolidin-1-ylmethyl)benzo[d]oxazol-2-yl)-2,2′-dimethyl-[1,1′-biphenyl]-3-yl)-6-(difluoromethoxy)benzo[d]oxazol-5-yl)methyl)pyrrolidine-3-carboxylic acid]",0.1 to 5
8,"Cc1c(-c2nc3cc(CN4CCC[C@@H]4C(=O)O)c(OC(F)F)cc3o2)cccc1-c1cccc(-c2nc3cc(CN4CC(C)(C)C4)cnc3o2)c1C [Example 170, ((6-(difluoromethoxy)-2-(3′-(6-((3,3-dimethylazetidin-1-yl)methyl)oxazolo[5,4-b]pyridin-2-yl)-2,2′-dimethyl-[1,1′-biphenyl]-3-yl)benzo[d]oxazol-5-yl)methyl)-D-proline]",5 to 50
9,"Cc1c(Nc2nccc3cc(CNCC4CCC(=O)N4)cnc23)cccc1-c1cccc(-c2nc3cc(CN4CCC[C@H]4C(=O)O)c(OC(F)F)cc3o2)c1C (some centres unmarked) [Example 179, ((6-(difluoromethoxy)-2-(2,2′-dimethyl-3′-((3-((((5-oxopyrrolidin-2-yl)methyl)amino)methyl)-1,7-naphthyridin-8-yl)amino)-[1,1′-biphenyl]-3-yl)benzo[d]oxazol-5-yl)methyl)proline]",0.1 to 5

# More lines, now with the values ahead:
row,IC50 [nM],Compound
1,0.1 to 5,"Cc1c(-c2nc3cc(CN4CCC[C@H]4C(=O)O)c(OC(F)F)cc3o2)cccc1-c1cccc(-c2nc3cc(CN4CCC(CN(C)C)C4)cc(C#N)c3o2)c1C (stereo partly drawn) [Example 152, ((2-(3′-(7-cyano-5-((3-((dimethylamino)methyl)pyrrolidin-1-yl)methyl)benzo [d]oxazol-2-yl)-2,2′-dimethyl-[1,1′-biphenyl]-3-yl)-6-(difluoromethoxy)benzo[d]oxazol-5-yl)methyl)-L-proline]"
2,5 to 50,"Cc1c(-c2nc3cc(CN4CCC[C@H]4C(=O)O)c(OC(F)F)cc3o2)cccc1-c1cccc(-c2nc3cc(CN4CC[C@@H](CO)C4)cc(C#N)c3o2)c1C [Example 154, ((2-(3′-(7-cyano-5-(((R)-3-(hydroxymethyl)pyrrolidin-1-yl)methyl)benzo [d]oxazol-2-yl)-2,2′-dimethyl-[1,1′-biphenyl]-3-yl)-6-(difluoromethoxy)benzo[d]oxazol-5-yl)methyl)-L-proline]"
3,0.1 to 5,Cc1c(-c2nc3cc(CN4CCC[C@H]4C(=O)O)c(OC(F)F)cc3o2)cccc1-c1cccc(-c2nc3cc(CN4CC(C)C(N)C4)cc(C#N)c3o2)c1C (some centres unmarked) [Example 156]
4,0.1 to 5,"Cc1c(-c2nc3cc(CN4CCC[C@H]4C(=O)O)c(OC(F)F)cc3o2)cccc1-c1cccc(-c2nc3cc(CN4CC(C)C(N(C)C)C4)cc(C#N)c3o2)c1C (stereo partly drawn) [Example 158, ((2-(3′-(7-cyano-5-((3-(dimethylamino)-4-methylpyrrolidin-1-yl)methyl)benzo[d]oxazol-2-yl)-2,2′-dimethyl-[1,1′-biphenyl]-3-yl)-6-(difluoromethoxy)benzo[d]oxazol-5-yl)methyl)-L-proline]"
5,0.1 to 5,"Cc1c(-c2nc3cc(CN4CCC[C@H]4C(=O)O)c(OC(F)F)cc3o2)cccc1-c1cccc(-c2nc3cc(CN4CC(C)(CN(C)C)C4)cc(C#N)c3o2)c1C [Example 159, ((2-(3′-(7-cyano-5-((3-((dimethylamino)methyl)-3-methylazetidin-1-yl)methyl)benzo[d]oxazol-2-yl)-2,2′-dimethyl-[1,1′-biphenyl]-3-yl)-6-(difluoromethoxy)benzo[d]oxazol-5-yl)methyl)-L-proline]"
6,5 to 50,"Cc1c(-c2nc3cc(CN4CCC[C@@H]4C(=O)O)c(OC(F)F)cc3o2)cccc1-c1cccc(-c2nc3cc(CN4CCC(F)C4)cc(C#N)c3o2)c1C (stereo partly drawn) [Example 163, ((2-(3′-(7-cyano-5-((3-fluoropyrrolidin-1-yl)methyl)benzo[d]oxazol-2-yl)-2,2′-dimethyl-[1,1′-biphenyl]-3-yl)-6-(difluoromethoxy)benzo[d]oxazol-5-yl)methyl)-D-proline]"
7,5 to 50,"Cc1c(-c2nc3cc(CN4CCC[C@H]4C(=O)O)c(OC(F)F)cc3o2)cccc1-c1cccc(-c2nc3cc(CN4CCC(C)(F)C4)cc(C#N)c3o2)c1C (stereo partly drawn) [Example 167, ((2-(3′-(7-cyano-5-((3-fluoro-3-methylpyrrolidin-1-yl)methyl)benzo[d]oxazol-2-yl)-2,2′-dimethyl-[1,1′-biphenyl]-3-yl)-6-(difluoromethoxy)benzo[d]oxazol-5-yl)methyl)-L-proline]"
8,0.1 to 5,"Cc1c(-c2nc3cc(CN4CCC[C@H]4C(=O)O)c(OC(F)F)cc3o2)cccc1-c1cccc(-c2nc3cc(CN4CC[C@@H](CF)C4)cc(C#N)c3o2)c1C [Example 168, ((2-(3′-(7-cyano-5-(((R)-3-(fluoromethyl)pyrrolidin-1-yl)methyl)benzo[d]oxazol-2-yl)-2,2′-dimethyl-[1,1′-biphenyl]-3-yl)-6-(difluoromethoxy)benzo[d]oxazol-5-yl)methyl)-L-proline]"
